Laboratory results published in paper PMC5951806, “Rapid labelling and covalent inhibition of intracellular native proteins using ligand-directed N-acyl-N-alkyl sulfonamide” (Nature Communications, 2018).

Tests used:
Assay in all cases: TMT LC-MSMS of 11-labelled proteins
Type in all cases: cell-based
peroxiredoxin-1 (PRDX1) = biological target: T1, peroxiredoxin-1 (PRDX1) (Homo sapiens, UniProt Q06830)
T1 sequence (Q06830 1-199): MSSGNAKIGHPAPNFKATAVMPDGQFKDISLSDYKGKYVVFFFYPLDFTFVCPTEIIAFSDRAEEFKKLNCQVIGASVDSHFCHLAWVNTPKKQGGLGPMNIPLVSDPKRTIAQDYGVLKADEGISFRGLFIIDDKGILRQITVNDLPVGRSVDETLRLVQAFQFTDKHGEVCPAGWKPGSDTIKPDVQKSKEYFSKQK

[1] = biological target: ATP synthase subunit beta, mitochondrial (ATP5B) (Homo sapiens, UniProt P06576)
[2] = biological target: Tubulin beta-4B chain (TUBB4B) (Homo sapiens, UniProt P68371)
[3] = biological target: T2, dehydrogenase/reductase SDR family member 2, mitochondrial (DHRS2) (Homo sapiens, UniProt Q13268)
T2 sequence (Q13268 24-280): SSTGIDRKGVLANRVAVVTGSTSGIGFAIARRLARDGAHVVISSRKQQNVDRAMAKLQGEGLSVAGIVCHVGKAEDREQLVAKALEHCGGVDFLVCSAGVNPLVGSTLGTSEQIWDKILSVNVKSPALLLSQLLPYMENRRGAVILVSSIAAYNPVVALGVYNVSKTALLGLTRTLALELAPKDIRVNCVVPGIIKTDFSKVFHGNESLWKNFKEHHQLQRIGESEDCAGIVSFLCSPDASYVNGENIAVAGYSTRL

[4] = sheet Exp1, SKBR3 cells, 11 0.5 µM 3 h vs DMSO
[5] = sheet Exp1, SKBR3 cells, 11 0.5 µM 3 h vs with PU-H71 10 µM
[6] = sheet Merged, SKBR3 cells, 11 0.5 µM 3 h vs DMSO
[7] = sheet Merged, SKBR3 cells, 11 0.5 µM 3 h vs with PU-H71 10 µM

Tubulin beta-4B chain (TUBB4B), sequence (P68371 whole entry): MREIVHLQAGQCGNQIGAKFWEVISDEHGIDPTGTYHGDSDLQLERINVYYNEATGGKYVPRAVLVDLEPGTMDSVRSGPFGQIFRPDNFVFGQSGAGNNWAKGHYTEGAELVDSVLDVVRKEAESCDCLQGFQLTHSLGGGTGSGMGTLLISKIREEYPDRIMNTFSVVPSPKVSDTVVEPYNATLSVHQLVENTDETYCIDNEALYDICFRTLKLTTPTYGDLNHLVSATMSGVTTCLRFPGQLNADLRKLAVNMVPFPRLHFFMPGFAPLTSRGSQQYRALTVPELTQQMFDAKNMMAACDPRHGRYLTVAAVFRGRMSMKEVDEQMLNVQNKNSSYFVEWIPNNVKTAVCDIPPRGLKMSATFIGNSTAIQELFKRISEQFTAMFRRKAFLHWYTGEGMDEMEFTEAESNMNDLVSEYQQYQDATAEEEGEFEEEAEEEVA
Tubulin beta-4B chain (TUBB4B), sequence (P68363 whole entry partner): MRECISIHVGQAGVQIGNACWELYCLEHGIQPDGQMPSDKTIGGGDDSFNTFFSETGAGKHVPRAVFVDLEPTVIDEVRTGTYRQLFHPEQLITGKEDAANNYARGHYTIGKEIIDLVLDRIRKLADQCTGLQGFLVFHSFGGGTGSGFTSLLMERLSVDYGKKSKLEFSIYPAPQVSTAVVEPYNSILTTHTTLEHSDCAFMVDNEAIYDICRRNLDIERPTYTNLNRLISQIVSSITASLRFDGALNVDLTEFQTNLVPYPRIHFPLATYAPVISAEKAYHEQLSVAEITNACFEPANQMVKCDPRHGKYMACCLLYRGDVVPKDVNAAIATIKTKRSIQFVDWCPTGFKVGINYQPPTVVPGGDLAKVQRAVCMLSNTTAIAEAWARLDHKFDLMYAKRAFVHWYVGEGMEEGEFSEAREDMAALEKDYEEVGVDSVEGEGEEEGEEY

CC(=O)Oc1ccc2c(c1)Oc1cc(OC(C)=O)ccc1C21OC(=O)c2cc(C(=O)NCCOCCOCCNC(=O)CCCC(=O)N(CC#N)S(=O)(=O)c3ccc(C(=O)NCCCn4c(Sc5cc6c(cc5I)OCO6)nc5c(N)ncnc54)cc3)ccc21 [compound 11]
Abundance Ratio: (11) / (11 with PU-H71) (peroxiredoxin-1 (PRDX1); Exp3, PRDX1): 0.822 | Abundance Ratio: (11) / (DMSO) (peroxiredoxin-1 (PRDX1); Exp3, PRDX1): 2.683 | Abundances (Grouped): 11 (peroxiredoxin-1 (PRDX1); Exp3, PRDX1): 295.4 | Abundances (Grouped): 11 with PU-H71 (peroxiredoxin-1 (PRDX1); Exp3, PRDX1): 359.3 | Abundance Ratio: (11) / (DMSO) (peroxiredoxin-1 (PRDX1); [4]): 2.358 | Abundance Ratio: (11) / (11 with PU-H71) (peroxiredoxin-1 (PRDX1); [5]): 0.804 | Abundance Ratio: (11) / (11 with PU-H71) (peroxiredoxin-1 (PRDX1); sheet Exp2, PRDX1): 0.861 | Abundance Ratio: (11) / (DMSO) (peroxiredoxin-1 (PRDX1); sheet Exp2, PRDX1): 2.62 | Abundances (Grouped): 11 (peroxiredoxin-1 (PRDX1); sheet Exp2, PRDX1): 93.8 | Abundances (Grouped): 11 with PU-H71 (peroxiredoxin-1 (PRDX1); sheet Exp2, PRDX1): 109 | Abundance Ratio: (11) / (DMSO) (peroxiredoxin-1 (PRDX1); [6]): 2.219 | Abundance Ratio: (11) / (11 with PU-H71) (peroxiredoxin-1 (PRDX1); [7]): 0.847 | Abundance Ratio: (11) / (11 with PU-H71) ([1]; sheet Exp2, ATP5B): 0.866 | Abundance Ratio: (11) / (DMSO) ([1]; sheet Exp2, ATP5B): 1.928 | Abundances (Grouped): 11 ([1]; sheet Exp2, ATP5B): 141.5 | Abundances (Grouped): 11 with PU-H71 ([1]; sheet Exp2, ATP5B, with PU-H71): 163.4 | Abundance Ratio: (11) / (DMSO) [1, 6]: 1.928 | Abundance Ratio: (11) / (11 with PU-H71) [1, 7]: 0.866 | Abundance Ratio: (11) / (11 with PU-H71) ([2]; Exp3, TUBB4B): 1.068 | Abundance Ratio: (11) / (DMSO) ([2]; Exp3, TUBB4B): 3.456 | Abundances (Grouped): 11 ([2]; Exp3, TUBB4B): 287.5 | Abundances (Grouped): 11 with PU-H71 ([2]; Exp3, TUBB4B): 269.1 | Abundance Ratio: (11) / (DMSO) [2, 4]: 3.652 | Abundance Ratio: (11) / (11 with PU-H71) [2, 5]: 1.046 | Abundance Ratio: (11) / (11 with PU-H71) ([2]; sheet Exp2, TUBB4B): 0.891 | Abundance Ratio: (11) / (DMSO) ([2]; sheet Exp2, TUBB4B): 2.612 | Abundances (Grouped): 11 ([2]; sheet Exp2, TUBB4B): 209.5 | Abundances (Grouped): 11 with PU-H71 ([2]; sheet Exp2, TUBB4B): 235 | Abundance Ratio: (11) / (DMSO) [2, 6]: 3.477 | Abundance Ratio: (11) / (11 with PU-H71) [2, 7]: 1.054 | Abundance Ratio: (11) / (11 with PU-H71) ([3]; Exp3, DHRS2): 0.644 | Abundance Ratio: (11) / (DMSO) ([3]; Exp3, DHRS2): 2.859 | Abundances (Grouped): 11 ([3]; Exp3, DHRS2): 223.6 | Abundances (Grouped): 11 with PU-H71 ([3]; Exp3, DHRS2): 347.1 | Abundance Ratio: (11) / (DMSO) [3, 4]: 3.162 | Abundance Ratio: (11) / (11 with PU-H71) [3, 5]: 0.783 | Abundance Ratio: (11) / (11 with PU-H71) ([3]; sheet Exp2, DHRS2): 0.6 | Abundance Ratio: (11) / (DMSO) ([3]; sheet Exp2, DHRS2): 3.132 | Abundances (Grouped): 11 ([3]; sheet Exp2, DHRS2): 156.3 | Abundances (Grouped): 11 with PU-H71 ([3]; sheet Exp2, DHRS2): 260.6 | Abundance Ratio: (11) / (DMSO) [3, 6]: 2.859 | Abundance Ratio: (11) / (11 with PU-H71) [3, 7]: 0.644
